Assay results: publication PMC12380226, “Novel strategies for inhibiting SufA protease: the role of ester substituents and biological properties” (Future Medicinal Chemistry, 2025)
Read-outs that look alike come from different tables or passages of the source. One block for each molecule: values may come before it.

Tests used:
SufA protease [1] = assay: SufA inhibition studies (fluorogenic substrate ABZ-Ile-Ser-Lys-ANB, progress curve method); format: biochemical, Finegoldia magna
Experimental: The assays were performed at 37°C with an excitation wavelength of 320 nm for ABZ and an emission wavelength of 410 nm using 96-well microtiter plates (COSTAR, Corning Inc., Gdańsk, Poland) in 0.1 M Tris-HCl (pH 8.0) with 0.01 M KCl. The concentrations of substrate (ABZ-Ile-Ser-Lys-ANB) and SufA protease were 25 µM and 4 µg/mL, respectively. The SufA protease was incubated for 10 min with the tested compound, dissolved in DMSO (inhibitor final concentration ranging from 0 to 300 µM), and then the measurement was taken for 10 min. Each assay was performed in at least duplicate. The inhibitory activity was measured, and the percentage of inhibition was calculated with the equation: % inhibition = RFUtest / RFU− ∗ 100%,
where RFU represents the relative fluorescence units, test refers to the signal from reactions containing an inhibitor, and (-) represents the signal from the control reactions (without an inhibitor). The inhibitory effects of the synthesized compounds were evaluated by means of the progress curve method.
where [P] is the product concentration at time t, vi is the initial velocity, and vs is the steady state velocity. […]

SufA protease [2] = assay: Inhibition of SufA-mediated degradation of human fibrinogen (SDS-PAGE); format: biochemical, Finegoldia magna; details: SufA 25 µg/mL, inhibitor 1.3 mM, pre-incubation 60 min 37°C, SDS-PAGE reducing
Experimental: (§1) The SufA protease was incubated with the specific SufA inhibitor for 60 min at 37°C, maintaining a constant DMSO concentration of 1%. The reference sample contained an appropriate amount of DMSO instead of the inhibitor. After incubation, fibrinogen and LL-37 proteins were added to each sample of enzyme (25 µg/mL) or enzyme with inhibitor (25 µg/mL, 1.3 mM). Samples were analyzed by PAGE using the standard Laemmli protocol for fibrinogen and the procedure developed by Judd for the LL-37 peptide. Raw gel results of the inhibition of SufA-induced degradation of human fibrinogen and LL-37 by tested inhibitors after SDS-PAGE electrophoresis analysis are presented in Supplementary Biochemical Part S1-S2 and Figures S9–S11.

E. coli PCM 2561 = assay: Antibacterial activity, growth reduction (OD600, 24 h); format: cell-based; details: Escherichia coli, PCM2561, MH broth
Experimental: (§2) The antibacterial properties of the inhibitors were assessed in Mueller-Hinton (MH) broth at 37°C for E. coli, S. marcescens, and S. aureus. For F. magna, the antibacterial properties of the inhibitors were tested in Todd Hewitt broth at 37°C under anaerobic conditions. An overnight culture of the tested bacteria was diluted 200-fold in fresh medium and incubated at 37°C until the OD600 reached 0.3. Subsequently, 100 µL of the inhibitor and antibiotic control (at concentrations ranging from 0 to 250 µg/mL) were added to 900 µL of bacterial culture, which had been previously diluted to an OD600 of less than 0.01. The resulting samples were incubated for 24 h at 37°C with shaking at 100 rpm. Then, 200 µL of each sample was transferred to a well plate, and the absorbance was measured at a wavelength of 600 nm using a microplate reader. To determine the antibacterial properties of the inhibitors, the data were normalized against a control culture (without inhibitor or antibiotics). The IC50 values were calculated using GraphPad Prism through nonlinear regression, employing the following equation model: Y=YBottom+(YTop−YBottom)/(1+10^∧((LogIC50−X)∗(−1.0))),
(§3) where YBottom and YTop represent the plateaued units of the Y-axis. The IC50 value represents the concentration that produces a half-maximal response between YBottom and YTop, thus measuring the potency of a compound in inhibiting bacterial viability and indicating a 50% reduction in bacterial growth. The effect of gentamicin on bacterial growth reduction, including its IC50 values, can be found in the Supplementary Material (Supplementary Microbiology Part S1, Figures S12)

F. magna PCM 2822 = assay: as above; format: cell-based; details: Finegoldia magna, read-out: IC50 growth reduction
Experimental: as §2, §3

S. aureus PCM 2602 = assay: as above; format: cell-based; details: Staphylococcus aureus, PCM2602, MH broth
Experimental: as §2, §3

S. marcescens PCM 549 = assay: as above; format: cell-based; details: Serratia marcescens, read-out: IC50 growth reduction
Experimental: as §2, §3

E. coli = details: read-out: literature IC50; cited from earlier work
S. aureus = details: read-out: literature IC50; cited from earlier work
ctDNA = assay: DNA intercalation by circular dichroism spectroscopy; format: binding, ox; details: inhibitor 100 µM, ctDNA 50 µM, 1% DMSO
Experimental: The measurement parameters were set as follows: the wavelength range was set from 220 nm to 320 nm, step – at every 0.2 nm, and 4 accumulations. Measurements were performed in a Justcode M cuvette with an optical path of 1 mm. 200 μL of the analyzed solution was introduced into the cuvette each time. The apparatus was zeroed using phosphate buffer with the following composition: 150 mM NaCl, 20 mM PB, 1 mM EDTA. Afterward, the samples (maintaining a constant DMSO concentration of 1%) of ctDNA (50 µM), inhibitor (100 µM), and inhibitor (100 µM) with ctDNA (50 µM) were prepared. First, a sample of the ctDNA solution was measured with a CD spectrometer to check the graph for pure DNA. Then, a sample of the inhibitor solution was measured, against which the apparatus was blanked because the inhibitor molecule itself could produce a CD effect, potentially falsifying the results. At the end, a sample of the actual solution containing the inhibitor and ctDNA was measured.

SufA protease [3] = assay: Inhibition of SufA-mediated degradation of human antimicrobial peptide LL-37 (PAGE); format: biochemical, Finegoldia magna; details: SufA 25 µg/mL, inhibitor 1.3 mM, pre-incubation 60 min 37°C
Experimental: as §1

SufA [4] = system: SufA; design: method as in PMID 24859537; details: cited from earlier work
SufA [5] = system: SufA; design: method as in PMID 24859537; details: cited from earlier work; remark: listed apart in the source
BALB/3T3 = system: BALB/3T3; design: method as in PMID 24859537; details: BALB/3T3 cell line; cited from earlier work
HLMEC = system: HLMEC; design: method as in PMID 24859537; details: HLMEC cell line; cited from earlier work
SplA protease = system: SplA protease; design: method as in PMID 24375505; details: cited from earlier work

SMILES: COC(=O)c1ccc(OP(=O)(Oc2ccc(C(=O)OC)cc2)C(NC(=O)OCc2ccccc2)c2ccc3cc(C(=N)N)ccc3c2)cc1 (stereo not drawn) [Compound 8c, Cbz-6-AmNphth^P(OC6H4-4-COOCH3)2]
% SufA inhibition (SufA protease [1]; cmpd. conc. 50 μM): < 50%
Inhibition of SufA-induced degradation of human fibrinogen (SufA protease [2]): weaker inhibitory effect on fibrinogen degradation
IC50 (E. coli PCM 2561): 60900 nM
IC50 (F. magna PCM 2822; PCM2822, 24 h): 6980 nM
IC50 (S. aureus PCM 2602): > 150000 nM
IC50 (S. marcescens PCM 549; PCM549, 24 h): < 10 nM

SMILES: O=C(N[C@H](CO)[C@H](O)c1ccc([N+](=O)[O-])cc1)C(Cl)Cl [chloramphenicol]
IC50 (E. coli): 373000 nM
IC50 (S. aureus): 1590 nM

SMILES: CSc1ccc(OP(=O)(Oc2ccc(SC)cc2)C(NC(=O)OCc2ccccc2)c2ccc3cc(C(=N)N)ccc3c2)cc1 (stereo not drawn) [Compound 8a, Cbz-6-AmNphth^P(OC6H4-4-SCH3)2]
k2/Ki (SufA protease [1]; second-order rate constant, 37°C, pH 8.0): 1500 M⁻¹ s⁻¹
DNA intercalation (change of CD spectrum of ctDNA) (ctDNA): does not induce DNA intercalation
Inhibition of SufA-induced degradation of human fibrinogen (SufA protease [2]): completely prevented fibrinogen degradation
Inhibition of SufA-induced degradation of LL-37 (SufA protease [3]): inhibition of LL-37 cleavage
IC50 (E. coli PCM 2561): 28200 nM
IC50 (F. magna PCM 2822; PCM2822, Todd Hewitt broth, anaerobic, 24 h): 20 nM
IC50 (S. aureus PCM 2602): 2650 nM
IC50 (S. marcescens PCM 549; PCM549, 24 h): 20 nM

IC50 (S. marcescens PCM 549; PCM549, MH broth, 24 h): 251 nM
SMILES: CNC(C)C1CCC(N)C(OC2C(N)CC(N)C(OC3OCC(C)(O)C(NC)C3O)C2O)O1 (stereo not drawn) [gentamicin, reference compound]

SMILES: CC1(C)S[C@@H]2[C@H](NC(=O)[C@H](N)c3ccccc3)C(=O)N2[C@H]1C(=O)O [ampicillin]
IC50 (E. coli): 10100 nM
IC50 (S. aureus): 180 nM

SMILES: COc1ccc(OP(=O)(Oc2ccc(OC)cc2)C(NC(=O)OCc2ccccc2)c2ccc3cc(C(=N)N)ccc3c2)cc1 (stereo not drawn) [Compound 8b, Cbz-6-AmNphth^P(OC6H4-4-OCH3)2]
Inhibition of SufA-induced degradation of human fibrinogen (SufA protease [2]): weaker inhibitory effect on fibrinogen degradation
IC50 (E. coli PCM 2561): > 150000 nM
IC50 (F. magna PCM 2822; PCM2822, 24 h): 40 nM
IC50 (S. aureus PCM 2602): 19200 nM
IC50 (S. marcescens PCM 549; PCM549, 24 h): 480 nM

SMILES: N=C(N)c1ccc2cc(C(NC(=O)OCc3ccccc3)P(=O)(Oc3ccccc3)Oc3ccccc3)ccc2c1 (stereo not drawn) [Cbz-6-AmNpth^P(OC6H5)2]
k2/Ki (SufA [4]): 10,800 M^− 1 s^− 1
Inhibition of degradation of fibrinogen (SufA [5]): completely inhibited the degradation of fibrinogen
Cytotoxicity (BALB/3T3): no significant cytotoxicity
Cytotoxicity (HLMEC): no significant cytotoxicity

SMILES: CC(C)C(NC(=O)OCc1ccccc1)C(=O)N1CCCC1C(=O)NC(Cc1ccccc1)P(=O)(Oc1ccc(S(C)(=O)=O)cc1)Oc1ccc(S(C)(=O)=O)cc1 (stereo not drawn) [Cbz-Val-Pro-Phe^P(OC6H4-4-SOOCH3)2]
k2/Ki (SplA protease): > 8000 M⁻¹ s⁻¹

SMILES: CC(C)CC(NC(=O)C1CCCN1C(=O)C(NC(=O)OCc1ccccc1)C(C)C)P(=O)(Oc1ccc(S(C)(=O)=O)cc1)Oc1ccc(S(C)(=O)=O)cc1 (stereo not drawn) [Cbz-Val-Pro-Leu^P(OC6H4-4-SOOCH3)2]
k2/Ki (SplA protease): > 8000 M⁻¹ s⁻¹
